According to patent US12539281B2 (priority 2021, dated 2026):

What was measured:
[1] = test system: blood-brain barrier (BBB); assay: Microcatheter 3% EA-mediated delivery of Alexa Fluor 647-labeled anti-human IgG antibody, confocal imaging (Experiment 25); format: in vivo; details: 300 μL 3% EA via microcatheter then 10% labeled antibody, rats
Description: Following the perfusion of 300 μL of 3% EA through the intracerebral artery microcatheter, 10% Alexa Fluor® 647-labeled anti-human IgG antibody [EPR4421] (Ab307521, Abcam, UK) is slowly injected along the catheter (5-10 minutes). Two hours later, the brain tissue is perfused and removed after euthanasia. The pathological tissue sections are stained with DAPI, and confocal imaging is performed to evaluate the distribution of Alexa Fluor® 647-labeled anti-human IgG antibody in the rat brain. The experimental rats are injected with 300 μL of 0.9% NaCl without any concentration of EA as a negative control.
The blue color comes from the nuclei stained with DAPI. The pink color comes from the rabbit anti-human IgG antibody labeled with Alexa Fluor 647.

[2] = test system: blood-brain barrier (BBB); assay: IA ethyl alcohol, NEO100 or mannitol mediated BBB disruption, extravasated EB dye in perfused mouse brain (Experiments 1-3); format: in vivo, mice; details: for EB dye / EB dye penetration level / Patchy, or punctate pattern of EB dye: perfused mouse brain
Description: The method of IA and IC injection is similar to the IV push in the clinic, which comprises essentially the steps of: • pushing the injection composition at a particular infusion flow rate immediately after the placement of the IA catheter into the internal carotid artery (ICA) or the insertion of the injection needle into the left ventricle via the ultrasound-guided intracardiac (IC) puncture at room temperature.
When performing the IA and IC injections, the infusion flow rate is about 5-7 μl/second (0.3-0.45 ml/min), the infusion volume is about […] of the body weight (at 1 μl/g, volume/weight ratio), and USP purified water or sodium chloride is used to reconstitute varied EA solutions at room temperature.
Intracardiac injection of NEO100 or EA can be carried out through the procedure of ultrasound-guided intracardiac (IC) injection. […] The mouse is anesthetized in an induction chamber using 2-3% isoflurane in 100% oxygen at a rate of 0.2-0.5 L/min. Fur over the thorax area is removed and the animal is placed in a stereotactic frame in supine position, securing the upper and lower limbs to avoid body movement. The ultrasound transducer is placed above the chest of the animal, and the injection syringe is anchored to a platform to avoid erratic needle movements. An electrocardiogram monitor is used to monitor heart function during the intracardiac injection.
EB dye is used as the non-BBB permeable substance.
Photographs of the perfused brain tissues of the experimental mice after treatment are taken.
Extravasated EB dye is used as the non-BBB permeable substance.

[3] = cited from earlier work
[4] = test system: blood-brain barrier (BBB); assay: Comparison of intracardiac EA and NEO100 mediated BBB opening, EB dye (Comparative Experiment 19, Experiment 20); format: in vivo, mice; details: mice
Description: Intracardiac injected various concentrations of EA (at 25%, 20%, 3%, 0.3%, and 0.1%, 0.03%, 0.01%) and NEO100 (at 25%, 20%, 3%, 0.3%, and 0.1%, 0.03%, 0.01%) are used on mice to test their effects on BBB disruption and evaluated by the observation of extravasated EB dye in the brain tissues. […] Photographs of the perfused brain tissues from the experimental mice treated with […] EA and NEO100 are taken for observation and comparison.
The same procedure as experiment 19 was performed with IA 0.3% NEO100 with 2% EB dye solution.

[5] = test system: blood-brain barrier (BBB); assay: Microcatheter 3% EA-mediated delivery of CD3-positive CAR T cells, confocal imaging (Experiment 26); format: in vivo; details: microcatheter 3% EA + 2×10^6 CAR T cells, normal rat
Description: Similarly, the efficacy of microcatheter placement and infusion of an optimal 3% EA-mediated delivery of CAR T cells is validated. The CAR T cells are human CD3 positive, which can be analyzed by immunohistochemistry staining using rabbit anti-human CD3 primary antibody and Alexa Fluor 647-labeled goat anti-rabbit IgG secondary antibody to detect CD3 expression on the surface of CAR T cells by confocal imaging, as shown in FIG. 19. […] The confocal imaging staining is performed to detect the spreading of CD3-positive CAR T cells. The blue color comes from the DAPI-stained nuclei. The red color is Alexa Fluor 647-labeled […], as only the human CAR T cells are CD3 positive.

[6] = test system: blood-brain barrier (BBB); assay: Intraarterial EA-mediated antibody delivery into normal rat brain via left internal carotid artery catheter (Experiments 15-17); format: in vivo, rats
Description: The experimental rat is treated with IA 3% EA+50 μg goat anti-rat IgG (H+L) ALEXA FLUOR® 647 (ab150167, Cambridge, MA USA) via the left internal carotid artery catheter. The micrograph of the whole brain section is scanned with a fluorescence microscope. Two sections from the right and left hemispheres of the brain are selected respectively and are enlarged with a magnification of 63×. The scale bar used is 50 μm. The images of the left and right hemispheres, and the enlarged sections are studied.
EA-mediated antibody (goat anti-rat IgG (H+L) ALEXA FLUOR® 647) brain entry via catheter placement through the internal carotid artery (left) are tested. The cryosection photographs and images from the confocal microscope after EA treatment are taken for studies. An EA-untreated group is used as a control group. IA antibody [50 μg goat anti-rat IgG (H+L) ALEXA FLUOR® 647] and IA 3% EA+antibody [50 μg goat anti-rat IgG (H+L) ALEXA FLUOR® 647 are the two comparison groups.
An ALEXA FLUOR® 647 anti-human IgG antibody was applied via IA catheter delivery to rule out the nonspecific binding to the experimental rats. 3% EA-mediated antibody brain entry via catheter placement through the internal carotid artery (left) is tested and compared. The cryosection photographs and images from the confocal microscope after EA treatment are taken for studies. An EA-untreated group is used as a control group. IA antibody [50 μg ALEXA FLUOR® 647 anti-human IgG antibody (ab201841); and IA 3% EA+50 μg ALEXA FLUOR® 647 anti-human IgG antibody (ab201841, Cambridge, MA USA) are the two comparison groups.

[7] = test system: blood-brain barrier (BBB); details: group B: 300 μl 3% EA infused in 5 seconds, room temperature
[8] = test system: blood-brain barrier (BBB); details: 300 μl 3% EA via microcatheter in left ICA, IV 2% EB at 30 min intervals, rats
Description: Evans blue (EB) dye is used as the non-BBB permeable substance.
In this experiment, the microcatheter is placed in the left internal carotid artery (ICA). The left internal carotid artery (ICA) leads to the left hemisphere of the brain. (That is, the selected intracerebral artery is the left internal carotid artery (ICA); and the target area is the left hemisphere of the brain.)

[9] = Comparison of the toxicity of IA NEO100 and IA EA (Experiment 21)
Description: The safety profile of IA 0.3% NEO100 vs. IA 0.3% EA are compared. […] There are 15 experimental mice in each testing group. The potential adverse effects are evaluated.

[10] = IA injection 0.3%, 15 mice per group, number of mice

CCO [ethyl alcohol]
penetration and spread of Alexa Fluor 647-labeled anti-human IgG antibodies in the brain [1]: significantly improve the penetration and spread | spread of EB dye inside the brain tissues ([2]; IA EA at 0.3%, 1%, and 3%, mice, superior and sagittal views): homogenized, evenly spread EB dye inside the brain tissues is observed | EB dye ([2]; IA agent at 0.1%): Observed | EB dye penetration level ([2]; IA agent at 0.1%): Widely | Patchy, or punctate pattern of EB dye ([2]; IA agent at 0.1%): Not | EB dye ([2]; IA agent at 0.3%): Observed | EB dye penetration level ([2]; IA agent at 0.3%): Widely | Patchy, or punctate pattern of EB dye ([2]; IA agent at 0.3%): Not | EB dye ([2]; IA agent at 3%): Observed | EB dye penetration level ([2]; IA agent at 3%): Widely | Patchy, or punctate pattern of EB dye ([2]; IA agent at 3%): Not | EB dye ([2]; IA agent at 5%): Observed | EB dye penetration level ([2]; IA agent at 5%): Widely | Patchy, or punctate pattern of EB dye ([2]; IA agent at 5%): Not | solubility in water [3]: infinitely soluble (fully miscible) | pattern of BBB opening, coronal section ([4]; IA 0.1% EA): homogenized BBB opening | dose response of BBB disruption ([4]; intracardiac 25%, 20%, 3%, 0.3%, 0.1%, 0.03%, 0.01%): dose-reverse response | delivery of CAR T cells into brain tissue [5]: can deliver BBB-impermeable CAR T cells into normal rat brain tissue | antibody staining (pink color) in brain, confocal ([6]; IA 3% EA+50 μg ALEXA FLUOR 647 anti-human IgG antibody, rats): even and widely spread pink color | antibody staining (pink color) in brain, confocal ([6]; IA 3% EA+50 μg goat anti-rat IgG (H+L) ALEXA FLUOR 647, rats): even and widely spread pink color | fluorescence of labeled antibody, left hemisphere vs right hemisphere ([6]; IA 3% EA+50 μg goat anti-rat IgG (H+L) ALEXA FLUOR 647 via left ICA catheter, rat): more dense fluorescence than the right hemisphere | EB (induced BBB disruption) [7]: observed | time until disrupted BBB is restored [8]: around 2 hours | tested animals that experienced adverse effects ([9]; IA injection 0.3%, 15 mice per group): less than 50% | Immediate Sudden Death [9, 10]: 0 | Intermediate-lasting epilepsy post-injection leading to death [9, 10]: 0 | Long-lasting epilepsy post-injection leading death [9, 10]: 0 | Moderate-lasting epilepsy post-injection and survival to fully recovery [9, 10]: 3 | Transient, mild, or occasional epilepsy post-injection and survival to fully recovery [9, 10]: 3 | Mortality ([9]; IA injection 0.3%, 15 mice per group, listed as EA): 0% | overall mortality rate ([9]; repeated comparative experiments of IA EA and IA NEO100): less than or equal to 1%
